The inhibition is how much of the control response was suppressed. Usually IC50 stands for the concentration that gives 50% inhibition. The term LC50 denotes the concentration that kills 50% of the test population. The mortality is the percentage killed.

Data on 8 compounds can be found in publication PMC12608320, “Insecticidal Potential of Aniba canelilla (H.B.K.) Mez Essential Oil Against Aedes aegypti: Larvicidal and Adulticidal Activities, Mechanism of Action, and Formulation Development” (Plants, 2025).

≈ marks a conversion by molar mass, not a printed value. Where “and” joins values, the source holds several entries; their conditions need not be identical. Equal values may be shown once.

The target in series [1] is acetylcholinesterase from A. aegypti larvae homogenate (Aedes aegypti, UniProt Q6A2E2). As to the kind of experiment: AChE inhibition (Ellman), A. aegypti L3 larvae homogenate. The class given is biochemical. The settings on record: for inhibition at 1500 µg/mL: at 1.5 mg∙mL^−1 (1500 µg mL^−1), read-out: Inhibition Rate (%) ± SD. On the procedure:
(§1) A total of 250 third instar larvae (370.1 mg) and 250 adults (163.8 mg) of A. aegypti, together with 150 adults of D. melanogaster (134.6 mg), were collected. Each group was placed in a separate 50 mL Falcon tube and frozen at −20 °C to arrest metabolic activity. After freezing, 5 mL of ultrapure water were added to each tube, and the contents were mechanically homogenized on ice using an IKA Ultra-Turrax® homogenizer (model T10BS32) at speed setting 4 for 5 min. The resulting homogenates were transferred to centrifuge tubes and spun at 10,000 rpm for 5 min at 4 °C in a refrigerated centrifuge. Supernatants were carefully collected, aliquoted and stored at −20 °C for biochemical analyses performed within 24 h. After preparation, the homogenates contained 50 insects/mL (larvae) and 30 insects/mL (adult Aedes aegypti and Drosophila melanogaster). These preparations were subsequently used for acetylcholinesterase inhibition activity, total-protein quantification by the BCA method, and calculation of specific catalytic units per individual.
(§2) Percentage inhibition of AChE was determined by the standard Ellman colorimetric method, with minor adaptations. […] After a 10 min incubation at 30 °C, 20 µL of DTNB (3.0 mM) and 20 µL of acetylthiocholine iodide (10.0 mM) were added. Plates were then incubated for a further 30 min at 30 °C, and end-point absorbance was read at 405 nm and pathlength 0.62 cm on a SpectraMax® 190 microplate reader (Molecular Devices^TM, SoftMax® Pro 5; serial no. SMP500-11007-TIQG).
In general terms: Ellman's reagent forms a yellow product with free thiols.

For the next series, the system named is Trypanosoma evansi. Also noted: method as in PMID 27988226. Conditions: at 0.5–2.0%; cited from earlier work.
For series [2], the target named is T1, acetylcholinesterase from D. melanogaster adults homogenate (Drosophila melanogaster, UniProt P07140).
T1 construct: from tissue; host or cells: whole-body homogenate supernatant of adult D. melanogaster (laboratory colony)
As to the kind of experiment: AChE inhibition (Ellman), D. melanogaster adult homogenate. The class given is biochemical. Conditions: for inhibition at 1500 µg/mL: at 1.5 mg∙mL^−1 (1500 µg mL^−1), read-out: Inhibition Rate (%) ± SD. The protocol:
as §1, §2

On the set-up of series [3]: method as in PMID 20406629. Conditions: Wistar rats, 5–10 mg/kg; cited from earlier work.
A further series relates to Aedes aegypti females. As to the kind of experiment: Adulticidal bottle bioassay (WHO/CDC) against Aedes aegypti females. The class given is in vivo. Conditions: preliminary tests. On the procedure: A. aegypti colony was maintained at 26 ± 1 °C, 80 ± 5% relative humidity, and a 12 h light–dark cycle. […] Glass bottles (295 mL) were coated with 1 mL of essential oil solution in analytical-grade acetone. Bottles were left open for 10 min to allow complete solvent evaporation, then acclimated for 1 h with the cap removed. Each bottle received 15–25 unfed adult female A. aegypti and was exposed to 200–50 ppm of the test compound. Deltamethrin (K-Othrine®) at 10 ppm served as the positive control, and acetone-treated bottles as the negative control. Assays were conducted in quadruplicate, with mortality recorded at 15 min intervals over 90 min of continuous exposure. After 90 min, mosquitoes were gently transferred to 500 mL cylindrical paper containers covered with nylon mesh and kept under colony conditions (26 °C, 80% RH, 12 h photoperiod) for knockdown assessment 24 h post-exposure.

The target of series [4] is acetylcholinesterase from A. aegypti adults homogenate (Aedes aegypti, UniProt Q6A2E2). In words: AChE inhibition (Ellman), A. aegypti adult homogenate. The class given is biochemical. Conditions: for inhibition at 1500 µg/mL: at 1.5 mg∙mL^−1 (1500 µg mL^−1), read-out: Inhibition Rate (%) ± SD. The protocol:
as §1, §2

Another series deals with macrophages. Set-up: method as in doi:10.1590/S0103-50532009000600011. Conditions: cited from earlier work.
The test system of a further series is Leishmania amazonensis. Set-up: method as in doi:10.1590/S0103-50532009000600011. Conditions: cited from earlier work.
Series [5] deals with T2, Acetylcholinesterase (AChE) from Electrophorus electricus (Electrophorus electricus, UniProt O42275).
T2 construct: purchased C3389-2KU
In words: AChE inhibition (Ellman), commercial enzyme. The class given is biochemical. The settings on record: for IC50: commercial enzyme 0.15 U mL^−1. On the procedure:
as §2

For another series, the system named is Aedes aegypti larvae. As to the kind of experiment: Larvicidal activity against Aedes aegypti third instar larvae. The settings on record: for LC50 ± SEM (LCL-UCL): L3 larvae. The protocol:
Eggs of the Rockefeller strain of Aedes aegypti were hatched in filtered water, and larvae were reared under controlled conditions (28 ± 1 °C; 12 h photoperiod) until reaching the third instar (L3). […] Each test condition, including controls, was run in quadruplicate. […] Formulations (PEOANIB, PNFTANE, PNFTENE) were applied with the same protocol used for DMSO-dissolved samples, keeping the final solvent concentration at 1% (v/v) of the total water volume.
Negative controls contained either DMSO (200 µL) alone or blank nanomicelles (NBr) at a volume matching the highest concentration tested, whereas the positive control comprised temephos at 1 µg mL^−1. After 14 days of preparation of the formulation, an activity confirmation test was performed at fixed concentrations of PNFTANE (70 ppm) and PNFTENE (5 ppm) formulations. The assays were performed in quadruplicate.

The test system of a further series is Artemia salina nauplii. In words: Toxicity test on Artemia salina nauplii (non-target). The class given is in vivo. The settings on record: 24 h, metanauplii. On the procedure: Toxicity assays with Artemia salina followed the procedure of Meyer and collaborators with adaptations like those of [86, 107]. For cyst hatching, 25 mg of eggs were placed in a cuboid-glass vessel containing 600 mL of artificial seawater (38 g L^−1 in distilled water) and incubated at 28–30 °C under continuous illumination from a 40 W incandescent lamp. After 24 h, the nauplii (first larval stage) were transferred to fresh saline and reared for an additional 24 h under the same conditions to obtain metanauplii (second larval stage), which were used in the bioassays. Ten metanauplii were exposed to 10 mL of saline containing the test samples dissolved in DMSO. […] After dosing, organisms were maintained at 28–30 °C under artificial light for 24 h. Mortality defined as immobility or sinking to the bottom was recorded, and LC50 values were calculated for each sample. All experiments were performed in triplicate with independent replicates under identical conditions to ensure reproducibility.

In the next series the test system is Artemia salina. Conditions: cited from earlier work.
The subject of another series is A. aegypti. Conditions: cited from earlier work.

`O=[N+]([O-])CCc1ccccc1` [NFTANE, 1-Nitro-2-phenylethane]: the inhibition at 1500 µg/mL in series [1], in [2] and in series [4] was ≤ 10% throughout. Further, the “activity against Trypanosoma evansi” value in the series on Trypanosoma evansi is “shows activity”. Further, in [3], the “effect on blood pressure” value was “significantly lowering blood pressure”. The “adulticidal effects compared with EOANIB” value in the series on Aedes aegypti females is reported as “comparable adulticidal effects to EOANIB”. For the same compound, the “fold less cytotoxic to macrophages than pentamidine” value in the series on macrophages is reported as “approximately 2.5 fold”. The IC50 is 40 µg/mL (≈ 265 µM) with Leishmania amazonensis and 1.25 mM in series [5]. Besides, in [5], the “Slope ± SEM” value is on record as 1.175 ± 0.066. For the same compound, the “LC50 ± SEM (LCL-UCL)” value with Aedes aegypti larvae (24 h exposure) is 84.8 ppm and 85.8 ppm; with Aedes aegypti larvae (48 h exposure), 83.6 ppm. Also, the 50% lethal concentration (LC50) in the series on Aedes aegypti larvae (exposure time not given) was 84–87 ppm.
Consider `O=[N+]([O-])C=Cc1ccccc1` [NFTENE, 1-Nitro-2-phenylethene], for which the “Slope ± SEM” value in series [1] is on record as 0.72 ± 0.06; in series [2], 2.02 ± 0.20; in series [4], 0.86 ± 0.07; in series [5], 1.283 ± 0.094. Besides, the inhibition at 25 µg/mL in [1] (25 μg.mL^−1) came to 15.5%. Also, the inhibition at 50 µg/mL in [1] (50 μg.mL^−1) came to 14.9%. In addition, the inhibition at 100 µg/mL worked out at 23.1% in series [1] (100 μg.mL^−1) and 4.5% in series [4] (100 μg.mL^−1). The inhibition at 250 µg/mL in [1] (250 μg.mL^−1) worked out at 26.8%; in series [4] (250 μg.mL^−1), 11.2%. For the same compound, the inhibition at 500 µg/mL in series [1] (500 μg.mL^−1) was 38%; in [2] (500 μg.mL^−1), 2.4%; in [4] (500 μg.mL^−1), 15.1%. Also, the inhibition at 1000 µg/mL in series [1] (1000 μg.mL^−1) was determined as 57.1%; in series [2] (1000 μg.mL^−1) it was 9.1%; in [4] (1000 μg.mL^−1), 26.6%. The inhibition at 1500 µg/mL in [1] was determined as 71.8 ± 2.21%; in series [2] it was 18.4 ± 2.11%; in [4], 34 ± 2.18%. Besides, the IC50 in series [2] was 21 mM; in [5], 0.998 mM. For the same compound, the “LC50 ± SEM (CI)” value with Artemia salina nauplii amounted to 1.9 ppm. The adult mortality entry with Aedes aegypti females (100 ppm) is listed as “no adult mortality”. Further, the “LC50 ± SEM (LCL-UCL)” value is 10.9 ppm in the series with Aedes aegypti larvae (24 h exposure) and 7.7 ppm in the series on Aedes aegypti larvae (48 h exposure).
In the case of `COP(=S)(OC)Oc1ccc(Sc2ccc(OP(=S)(OC)OC)cc2)cc1` [Temephos, reference compound], the mortality at 1 ppm in the series with Aedes aegypti larvae (Aedes aegypti, read-out: larval mortality) amounted to 100%.
For the compound `CCOP(=S)(OCC)Oc1nc(Cl)c(Cl)cc1Cl` [chlorpyrifos], in the series with Artemia salina, the median lethal concentration (LC50) was 0.38 ppm.
For the compound `N=C(N)c1ccc(OCCCCCOc2ccc(C(=N)N)cc2)cc1` [pentamidine, reference compound], the IC50 in the series on Leishmania amazonensis was 4.8 µg/mL (≈ 14.1 µM).
With `CCCSP(=O)(OCC)Oc1ccc(Br)cc1Cl` (centres unmarked) [profenofos], the LC50 with Artemia salina was 7.71 ppm.
As for `CC1=CCC2CC1C2(C)C` (stereo not drawn) [α-pinene], in the series on A. aegypti, the “LC50 (adulticidal activity of minor constituents)” value is 17.3–56.5 ppm.
With `C=C1CC/C=C(\C)CC[C@@H]2[C@@H]1CC2(C)C` [β-caryophyllene], the “LC50 (adulticidal activity of minor constituents)” value in the series on A. aegypti is 26 ppm.
